Usually viability stands for a read-out of living cells in per cent, often relative to untreated cells.

A short description of one data set: in vitro. The settings on record: human, hela cells.
`CNC(=O)Oc1cccc2cccnc12` [CBK015609]: the viability at 28.5 h, 10 µM came out at 88.5%.

Still in this data set, the particulars now being: human, hela cells, % viability.
For the molecule `COc1ccc(CNC(N)=O)cc1` [CBK013588], the viability at 28.5 h, 10 µM worked out at 104%.

For `CCn1c2ccccc2c2cc(C#N)c(=O)[nH]c21` [CBK013595], the viability at 28.5 h, 10 µM was found to be 93.9%.

`O=C(CCN1CCCCC1)NCC1OCCc2ccccc21` (stereo not drawn) [CBK013619]: the viability at 28.5 h, 10 µM is 97%.

With `CC1CN(Cc2ccccc2)CCN1c1cnccn1` (stereo not drawn) [CBK013684], the viability at 28.5 h, 10 µM was 102%.

On to `CCOC(=O)C(NCCc1ccc(OC)c(OC)c1)(NC(=O)c1ccco1)C(F)(F)F` (stereo not drawn) [CBK013715], for which the viability at 28.5 h, 10 µM is 123%.

In the case of `O=C(O)CCSC1=CCS(=O)(=O)c2ccc(Cl)cc21` [CBK013721], the viability at 28.5 h, 10 µM is 114%.

In the case of `O=C(c1ccccc1)c1ccccc1-n1nccn1` [CBK013849], the viability at 28.5 h, 10 µM turned out to be 99%.

Consider `CC(C)NC1=NC(=O)C(CC(=O)Nc2ccccc2)S1` (stereo not drawn) [CBK013880], for which the viability at 28.5 h, 10 µM was found to be 90.7%.

With `COc1ccc(C2(CNC(=O)C(O)COc3ccccc3)CCCC2)cc1OC` (stereo not drawn) [CBK014053], the viability at 28.5 h, 10 µM is 88.5%.

As to `N#Cc1cnn2c(C(F)(F)F)cc(C(F)(F)F)nc12` [CBK014064], the viability at 28.5 h, 10 µM stood at 93.5%.

In the case of `CCOC(=O)CC1SC(NS(=O)(=O)c2ccc(Br)cc2)=NC1=O` (stereo not drawn) [CBK014126], the viability at 28.5 h, 10 µM stood at 93.5%.

Regarding `CC(C)(C)c1nc(NS(=O)(=O)c2ccc(Cl)cc2)sc1Br` [CBK014258], the viability at 28.5 h, 10 µM was determined as 102%.

As to `O=C(O)c1ccc(OCc2n[nH]c(=S)n2-c2ccc(Cl)cc2)cc1` [CBK014317], the viability at 28.5 h, 10 µM was 102%.

With `NC(=O)c1cccc(OCCOc2nccnc2N2CCNCC2)c1` [CBK014338G], the viability at 28.5 h, 10 µM came to 114%.

`OCCOc1ccc(OCCOc2nccnc2N2CCNCC2)cc1` [CBK014349G]: the viability at 28.5 h, 10 µM was determined as 93.9%.

On to `COc1cc2c(cc1OC)C1(CCOCC1)CNC2CC(c1ccccc1)c1ccccc1` (stereo not drawn) [CBK014382], for which the viability at 28.5 h, 10 µM amounted to 91.4%.

For the molecule `c1ccc(-c2nc(N3CCOCC3)n3ccccc23)cc1` [CBK014407], the viability at 28.5 h, 10 µM came to 89.2%.

As for `FC(F)(F)c1cccc(OCCOc2nccnc2N2CCNCC2)c1` [CBK014518G], the viability at 28.5 h, 10 µM is 105%.

As for `CC(C)N(C)C(=O)Cc1csc(N)n1` [CBK014608], the viability at 28.5 h, 10 µM was determined as 100%.

On to `COc1cccc(CCN(Cc2ccc(S(=O)(=O)N3CCOC3=O)cc2)Cc2cccc(OCCO)c2)c1` [CBK014806], for which the viability at 28.5 h, 10 µM is 98.5%.

In the case of `COc1ccc(CN(Cc2ccc(OC)cc2)Cc2ccc(S(=O)(=O)N3CCOC3=O)cc2)cc1` [CBK014818], the viability at 28.5 h, 10 µM worked out at 110%.

Take `CCn1c(C(C)Oc2ccc(Cl)cc2)n[nH]c1=S` (stereo not drawn) [CBK015099]: the viability at 28.5 h, 10 µM is 108%.

On to `CCn1c(C(O)c2ccccc2)n[nH]c1=S` (stereo not drawn) [CBK015110], for which the viability at 28.5 h, 10 µM is 90.5%.

In the case of `CCOC(=O)N[C@@H](CC1CCCCC1)C(=O)NCCc1ccc(S(N)(=O)=O)cc1` [CBK015131], the viability at 28.5 h, 10 µM is 106%.

As to `CCC(CN(C)C)C(=O)c1ccccc1` (stereo not drawn) [CBK015409C], the viability at 28.5 h, 10 µM came out at 95.1%.

Take `OCC(O)CN1CCCC1` (stereo not drawn) [CBK015457]: the viability at 28.5 h, 10 µM was found to be 114%.

Regarding `CN1CCN(Cc2n[nH]c(=S)n2-c2cccc(C#N)c2)CC1` [CBK015465], the viability at 28.5 h, 10 µM was 112%.

For `COc1ccc2c(c1)C(O)C(NCc1ccccc1)C2` (stereo not drawn) [CBK015469C], the viability at 28.5 h, 10 µM is 104%.

On to `O=C(O)c1cccc2cccc(-c3cccc4cccc(C(=O)O)c34)c12` [CBK015494], for which the viability at 28.5 h, 10 µM was 109%.

On to `FC(F)(F)c1ccc2c(c1)N(CCCN1CCCC1)c1ccccc1S2` [CBK015520C], for which the viability at 28.5 h, 10 µM came to 88%.

As to `CNC(c1ccncc1)C(NC)c1ccncc1` (stereo not drawn) [CBK015546], the viability at 28.5 h, 10 µM stood at 95.9%.

For the molecule `CC(=O)Nc1ncc(Cl)s1` [CBK015564], the viability at 28.5 h, 10 µM was found to be 108%.

For `O=[N+]([O-])c1cc(S(=O)(=O)Nc2cccc3ccccc23)ccc1N1CCNCC1` [CBK015584C], the viability at 28.5 h, 10 µM worked out at 90%.

With `CCOC(=O)Cc1nc2cc([N+](=O)[O-])ccc2oc1=O` [CBK015603], the viability at 28.5 h, 10 µM came out at 98%.

Take `C(=N\N=C\c1ccccn1)/c1ccccn1` [CBK015627]: the viability at 28.5 h, 10 µM was 89%.

With `COc1cc(C(=O)CCN2CCCCC2)cc(OC)c1OC` [CBK015639C], the viability at 28.5 h, 10 µM was 107%.

In the case of `S=C1NCC(COc2ccc(Cl)cc2)O1` (stereo not drawn) [CBK015647], the viability at 28.5 h, 10 µM was 98.9%.

For the molecule `NS(=O)(=O)c1ccc(Cl)c(Cl)c1` [CBK015652], the viability at 28.5 h, 10 µM amounted to 118%.

For `Cn1c(=O)oc2ccccc2c1=O` [CBK015658], the viability at 28.5 h, 10 µM turned out to be 100%.

Consider `COc1cc(C(=O)NC/C=N/O)cc(OC)c1OC` [CBK015662], for which the viability at 28.5 h, 10 µM amounted to 90%.

For the molecule `Cc1nc(N)nc(N2CCN(C)CC2)n1` [CBK015681], the viability at 28.5 h, 10 µM is 100%.

Take `O=c1[nH]c2cc(Cl)cc(Cl)c2o1` [CBK015711]: the viability at 28.5 h, 10 µM came out at 90.6%.

Turning to `OCCN1CSC(=S)N(CCc2ccc(Cl)cc2)C1` [CBK015713], the viability at 28.5 h, 10 µM is 122%.

Consider `O=C(O)c1cc2ccccc2[nH]1` [CBK015732], for which the viability at 28.5 h, 10 µM was 100%.

For `CC(C)n1c(=O)[nH]c2ccncc2c1=O` [CBK015763], the viability at 28.5 h, 10 µM was 88.8%.

`N#Cc1cnc(NCc2ccccc2)nc1N` [CBK015764]: the viability at 28.5 h, 10 µM stood at 90%.

In the case of `Cc1ccccc1Nc1n[nH]c(=S)s1` [CBK015808], the viability at 28.5 h, 10 µM is 111%.

Consider `CC(=O)c1ccc(O)c2ncccc12` [CBK015821], for which the viability at 28.5 h, 10 µM is 110%.

Regarding `CC(=O)C(/N=N\c1ccc(S(=O)(=O)Nc2nccs2)cc1)C(=O)Nc1ccc(Cl)cc1` (stereo not drawn) [CBK015826], the viability at 28.5 h, 10 µM is 86.8%.

Turning to `OCC1CCCCC1NCCCC(c1ccc(F)cc1)c1ccc(F)cc1` (stereo not drawn) [CBK015830C], the viability at 28.5 h, 10 µM is 104%.

`CN(C(=O)c1cccnc1)C(CC1CCCCC1)C1CCCCC1` (stereo not drawn) [CBK015849]: the viability at 28.5 h, 10 µM was 99.1%.

Consider `Cn1c(C(N)=O)cc(=O)n1-c1ccc([N+](=O)[O-])cc1` [CBK015873], for which the viability at 28.5 h, 10 µM amounted to 101%.

`CCOc1ccc(OCCC#N)cc1` [CBK015880]: the viability at 28.5 h, 10 µM was 84.7%.

As to `C/C(=N\Nc1ccc(Cl)c(Cl)c1)c1cccnc1` [CBK015914C], the viability at 28.5 h, 10 µM was determined as 93.3%.

In the case of `Clc1ccc(Cl)c(N/N=C(\c2ccccc2)c2cccnc2)c1` [CBK015932C], the viability at 28.5 h, 10 µM was found to be 96.9%.

Turning to `Cc1nn(Cc2ccccc2)c(C)c1C(=O)N(C)C` [CBK015942], the viability at 28.5 h, 10 µM worked out at 104%.

Regarding `CO[C@]1(c2ccc(Cl)cc2)CC[C@H](NCCCC(=O)c2ccc(F)cc2)CC1` [CBK015959C], the viability at 28.5 h, 10 µM was 90.2%.

Regarding `COc1ccccc1C1CCC(NCCCC(=O)c2ccc(F)cc2)CC1` (stereo not drawn) [CBK015965C], the viability at 28.5 h, 10 µM was determined as 105%.

Consider `OC[C@]1(c2ccccc2)CC[C@H](N2CCCC2)CC1` [CBK016010], for which the viability at 28.5 h, 10 µM came out at 85.5%.

As to `O=C(c1ccccc1)c1cc(Cl)ccc1-n1ccnc1Br` [CBK016011], the viability at 28.5 h, 10 µM is 90.4%.

The data set is the same for the next values; noted with them: human, hela cells, % viability, bulk resorufin, single well.
In the case of `COc1ccccc1CCNCc1ccc(Br)cc1` [CBK015036G], the viability at 28.5 h, 10 µM is 96.2%.

Turning to `COc1ccccc1CCNCc1ccccc1Br` [CBK015149], the viability at 28.5 h, 10 µM was 87%.

These data come from article PMC12040169 (PLOS Biology, 2025).
